Results taken from patent US8362004B2, “Piperazine analogs as broad-spectrum influenza antivirals” (priority 2010, dated 2013).
Read-outs that look alike come from different tables or passages of the source.

Experiments:
[1] = system: Influenza A/Solomon Islands/3/06; assay: Antiviral assay in MDCK cells, viral neuraminidase (MUNANA) readout, A/H1N1/Solomon Islands; format: cell-based; settings: read-out: A/H1N1/Solomon Islands Activity
A/H5N1/Duck_MN = assay: microbe, parasite or virus in culture; format: cell-based, influenza A
A/H5N1/Duck_PA = assay: microbe, parasite or virus in culture; format: cell-based, influenza A
A/H5N1/Gull_PA = assay: microbe, parasite or virus in culture; format: cell-based, influenza A
influenza A/WSN/33 = assay: Antiviral assay in MDCK cells, viral neuraminidase (MUNANA) readout, A/H1N1/WSN; format: cell-based; settings: read-out: A/H1N1/WSN Activity
[2] = system: influenza A/Brisbane/10/2007; assay: Antiviral assay in MDCK cells, viral neuraminidase (MUNANA) readout, A/H3N2/Brisbane; format: cell-based; settings: read-out: A/H3N2/Brisbane Activity
[3] = MDCK cells, MOI 0.001, 48 hrs post infection, viral NA activity

| SMILES | EC50 [1, 3] [nM] | EC50 (A/H5N1/Duck_MN; read-out: A/H5N1/Duck_MN) [nM] | EC50 (A/H5N1/Duck_PA; read-out: A/H5N1/Duck_PA) [nM] | EC50 (A/H5N1/Gull_PA; read-out: A/H5N1/Gull_PA) [nM] | EC50 (influenza A/WSN/33; [3]) [nM] | EC50 [2, 3] [nM] | EC50 ([1]; Influenza A virus, H1N1, MDCK, 48 h) [nM] | EC50 (A/H5N1/Duck_MN; Influenza A virus, H5N1, read-out: A/H5N1/Duck_MN) [nM] | EC50 (A/H5N1/Duck_PA; Influenza A virus, H5N1, read-out: A/H5N1/Duck_PA) [nM] | EC50 (A/H5N1/Gull_PA; Influenza A virus, H5N1, read-out: A/H5N1/Gull_PA) [nM] | EC50 (influenza A/WSN/33; Influenza A virus, MDCK, 48 h) [nM] | EC50 ([2]; Influenza A virus, H3N2, MDCK, 48 h) [nM] |
| --- | --- | --- | --- | --- | --- | --- | --- | --- | --- | --- | --- | --- |
| COc1ccccc1-c1noc(C)c1C(=O)N1CCN(c2cc(NC(=O)c3nccs3)c([N+](=O)[O-])cc2Cl)CC1 [Example 5] | < 100 | < 100 | < 100 | < 100 | < 100 | < 1000 |  |  |  |  |  |  |
| COc1ccccc1-c1noc(C)c1C(=O)N1CCN(c2cc(NC(=O)c3ccc(N(C)C)cc3)c([N+](=O)[O-])cc2Cl)CC1 [Example 14, N-(4-chloro-5-(4-(3-(2-methoxyphenyl)-5-methylisoxazole-4-carbonyl)piperazin-1-yl)-2-nitrophenyl)-4-(dimethylamino)benzamide] |  |  |  |  |  |  | < 100 | < 100 | < 1000 | < 100 | < 100 | < 100 |
| COc1ccccc1-c1nnn(C)c1C(=O)N1CCN(c2cc(NC(=O)c3ccc(N4CCOC4=O)cc3)c([N+](=O)[O-])cc2Cl)CC1 [Example 93] | < 100 | < 1000 | < 1000 | < 100 | < 100 | < 1000 |  |  |  |  |  |  |
